Drawing on ChEMBL document CHEMBL1139638, “Synthesis and biological evaluation of chalcones and their derived pyrazoles as potential cytotoxic agents” (Bioorg Med Chem Lett, 2005), this text covers IC50 for one compound.

For one assay, the system named is PC-3. As to the kind of experiment: Antiproliferative activity against prostate cancer PC-3 cell line. The class given is functional, cell-based, Homo sapiens. The conditions noted are these: Homo sapiens, PC-3.
The next assay has as its system SiHa. As to the kind of experiment: Antiproliferative activity against human SIHA cell line. It is filed as functional, cell-based. The conditions noted are these: Homo sapiens, SiHa.
The next assay has as its system SNB-78. As to the kind of experiment: Antiproliferative activity against human cancer SNB-78 cell line. The conditions noted are these: Homo sapiens, SNB-78. The class given is functional, cell-based.
A further assay concerns DU-145. In words: Antiproliferative activity against human cancer DU-145 cell line. The class given is functional, cell-based. The conditions noted are these: Homo sapiens, DU-145.
The next assay concerns A549. In words: Antiproliferative activity against human cancer A-549 cell line. The conditions noted are these: Homo sapiens, A549. The class given is functional, cell-based.
A further assay has as its system HEp-2. In words: Antiproliferative activity against human cancer Hep-2 cell line. The class given is functional, cell-based.
The test system of a further assay is SK-OV-3. In words: Antiproliferative activity against human cancer SKOV-3 cell line. The class given is functional, cell-based.
In the next assay the test system is HOP-62. As to the kind of experiment: Antiproliferative activity against human cancer HOP-62 cell line. It is filed as functional, cell-based. The conditions noted are these: Homo sapiens, HOP-62.
Another assay relates to HT-29. In words: Antiproliferative activity against Colon cancer HT-29 cell line. The class given is functional, cell-based, Homo sapiens. The conditions noted are these: Homo sapiens, HT-29.
The subject of another assay is SW-620. As to the kind of experiment: Antiproliferative activity against colon cancer SW-620 cell line. The class given is functional, cell-based. The conditions noted are these: Homo sapiens.
A further assay has as its system OVCAR-5. As to the kind of experiment: Antiproliferative activity against human cancer OVCAR-5 cell line. It is filed as functional, cell-based. The conditions noted are these: Homo sapiens, OVCAR-5.
The test system of a further assay is HCT-15. In words: Antiproliferative activity against human colon cancer HCT-15 cell line. It is filed as functional, cell-based.

Usually IC50 stands for the midpoint of a concentration-inhibition curve. A high value points to weaker potency.

Consider `COc1cc(C(=O)/C=C/c2ccccc2)cc(OC)c1OC`, for which the IC50 in the assay with PC-3 is 41.1 µM; with SiHa it was 36.5 µM; with SNB-78, 22.8 µM; in the assay with DU-145, 25.4 µM; with A549, 21.3 µM; in the assay with HEp-2 it was 7.55 µM. The IC50 with SK-OV-3 amounted to 21 µM; with HOP-62 it was 20.5 µM; in the assay on HT-29, 14.4 µM; in the assay on SW-620, 16 µM; with OVCAR-5 it was 8.9 µM; in the assay with HCT-15 it was 8.77 µM.
